Common to all, as to format: physicochemical
A short description of data set [1]: Stability experiments: ageing (humidity chamber).
Data set [2] can be described thus: Stability experiments: ageing (ambient conditions). The note with it: for Time stable at ambient conditions: monohydrate.
A short description of data set [3]: Thermal stability / decomposition by thermogravimetric analysis (TGA). As for the experimental part:
Thermogravimetric analysis (TGA): Thermogravimetric analyses were recorded in a Mettler Toledo TGA/SDTA851 with a balance MT1 type. Approximately 3-4 mg of sample were weighed (using a MX5 Mettler Toledo microbalance) into 40 μL aluminium crucibles with a pinhole lid and heated under nitrogen (10 mL/min) at 10° C./min from 30° C. to 300° C. Programs used: Data collection and evaluation with software STARe.

Data set [4] can be described thus: Storage stability in an aqueous medium. The conditions noted are these: in particular at physiological pH.
The nature of data set [5]: Solubility in an aqueous medium. The note with it: in particular at physiological pH.
A short description of data set [6]: Stability experiments: heating (vacuum oven). The note with it: 2-3 mbar.
A short description of a further data set: Dynamic vapor sorption. As for the experimental part: The sodium (S)-{8-fluoro-2-[4-(3-methoxyphenyl)piperazine-1-yl]-3-[2-methoxy (trifluoromethyl)phenyl]-3,4-dihydroquinazoline-4-yl}acetate monohydrate obtained from examples 07 and 08 were analyzed using X-Ray Diffraction, NMR spectroscopy, Thermal gravimetric analysis, Differential scanning calorimetry and dynamic vapor sorption.

Regarding `COc1cccc(N2CCN(C3=Nc4c(F)cccc4[C@H](CC(=O)[O-])N3c3cc(C(F)(F)F)ccc3OC)CC2)c1.[Na+]` [Form A, Sodium (S)-{8-fluoro-2-[4-(3-methoxyphenyl)piperazine-1-yl]-3-[2-methoxy-5-(trifluoromethyl)phenyl]-3,4-dihydroquinazoline-4-yl}acetate], the “Stability, ageing (humidity chamber)” value in data set [1] (25° C./60% RH, 24-72 hours) is recorded as 25° C./60% RH, 24-72 hours: Turns into. Besides, the “Stability under ambient conditions (in words)” value in data set [2] is listed as “not stable under ambient conditions”. Also, the “Stability, ageing (ambient conditions)” value in data set [2] (25° C., 30-40% RH, 24 hours) is recorded as 25° C., 30-40% RH, 24 hours: Turns into; in data set [2] (within 24 hours), “Complete transition into Form B within in”. Also, the “Decomposition temperature (TGA)” value in data set [3] (TGA) was “Decomposition at ca. 250 °C”.
`COc1cccc(N2CCN(C3=Nc4c(F)cccc4[C@H](CC(=O)[O-])N3c3cc(C(F)(F)F)ccc3OC)CC2)c1.O.[Na+]` [sodium letermovir monohydrate, sodium 2-[(4S)-8-fluoro-2-[4-(3-methoxyphenyl)piperazin-1-yl]-3-[2-methoxy-5-(trifluoromethyl)phenyl]-4H-quinazolin-4-yl]acetate monohydrate]: the Storage stability result in data set [4] is reported as “good storage stability”. Also, the Solubility result in data set [5] is “readily soluble”. Besides, the “Stability, heating (vacuum oven)” value is listed as 40° C., 2-3 mbar, 15 h: No changes, in data set [6] (40° C., 15 h) and 50° C., 2-3 mbar, 60 h: No changes in data set [6] (50° C., 60 h). The “Stability, ageing (humidity chamber)” value in data set [1] (25° C./60% RH, 72 hours) is 25° C./60% RH, 72 hours: minor changes; in data set [1] (30° C./75% RH, 48 hours), 30° C./75% RH, 48 hours: amorphous. In addition, in data set [1] (higher temperatures and higher humidity), the “Ageing at higher temperatures and higher humidity” value was “does not age”. For the same molecule, in data set [2] (after 4 weeks), the “Stability, ageing (ambient conditions, closed vial)” value was “No significant changes after 4 weeks”. The entries for the “Time stable at ambient conditions” value in data set [2] (listed as Form B) and in data set [2] were “over 6 months” and “over 4 weeks”, respectively. Moreover, the “Temperature up to which thermally stable (TGA)” value in data set [3] (as judged by TGA) is “above 80 °C”. Also, the entries for the “Dynamic vapor sorption weight increase” value in the data set “Dynamic vapor sorption” (from 10 to 80% RH) and in “Dynamic vapor sorption” (from 80 to 90% RH) were >9.5% weight increase from 10 to 80% RH and >8% weight increase from 80 to 90% RH, respectively.

The record behind these values is patent publication US20230219900A1, “Sodium 2-[(4S)-8-fluoro-2-[4-(3-methoxyphenyl)piperazin-1-yl]-3-[2-methoxy-5-(trifluoromethyl)phenyl]-4H-quinazolin-4-yl]acetate monohydrate, its preparation and use” (AIC246 AG & CO. KG, priority 2020, published 2023).
